Measurements from paper PMC8532147, “Dual Stimuli-Responsive Dynamic Covalent Peptide Tags: Toward Sequence-Controlled Release in Tumor-like Microenvironments” (Journal of the American Chemical Society, 2021).
Bridge positions count the residues as written; N and C are the ends. Square brackets hold non-standard residues; d marks the D form. Peptide text beside a SMILES is read from it. I, II: the chains in the order shown. Phe(4-B(OH)2) = N[C@@H](Cc1ccc(B(O)O)cc1)C(=O)O; Dopa = N[C@@H](Cc1ccc(O)c(O)c1)C(=O)O

Columns and labels:
in vitro [1] = assay type: in vitro ADME; conditions: calf (bovine), cells or culture medium
Method: Next, the stability of 2Ox in glucose containing solutions were tested since it is known that phenyl boronic acids interact with sugars.[11]2Ox was incubated in glucose solution (1 g/mL) or […] DMEM cell media (1 g/mL), which was used in the subsequent cell studies. The analysis was performed for up to 3 days and quantitative analysis was obtained using single ion monitoring (SIM) of m/z of 2Ox (m/z = 664, 388) in LC-ESI-MS to improve sensitivity in detection (SI, Figure S20). Fmoc-Phe-OH was used as an internal standard. […] The amount of 2Ox decreased by around 20% in low glucose DMEM cell culture media after a day of incubation (SI, Figure S20). The decrease is presumably due to the disulfide exchange with free thiols inside the media (10% FCS and cysteine according to manufacturer’s specifications). Nevertheless, 2Ox is sufficiently stable to potential thiol exchange for subsequent biological studies.
(§1) The UV (280 nm) signals were integrated and normalized against the Fmoc-Phe standard as well as the SIM for 664 against the SIM of 388. The relative area was then plotted against the incubation time.
(§2) Figure S 20: Stability of 2Ox in glucose solution (GS) and low glucose cell media (LGM) detected by UV -Vis and ESI-MS. […]
(§3) expected due to free thiols in the media (FCS and cysteine).
(§4) 11. Stability in cytosol under oxidative/reductive conditions
(§5) Stability in liver cytosol […]

in vitro [2] = assay type: in vitro ADME; conditions: s9 or cytosol
Method: Such differences in the physiological concentration of GSH have been exploited for controlled release. Thus, the GSH-induced cleavage of 1 mM of 2Ox was probed by incubation in commercially available liver cytosols spiked with physiologically relevant concentrations of GSH:GSSG (1:0.025 and 10:0.25 mM). The analysis was performed for up to 60 min and quantitative analysis was obtained using SIM in LC-MS (2Ox, m/z = 1328, 664) with Fmoc-Phe-OH as an internal standard (SI, Figure S22). […] On the other hand, at a concentration of 10 mM (molar ratio 10:1) the reaction was slightly slower due to longer equilibration time. […] Therefore, although the oxidized complex is stable over a longer period in serum (Figure 6a), GSH release could be induced in cytosolic conditions in cancer cells (Figure 6b), which would be important for controlled release as a drug delivery system.
as §1, §2, §3, §4, §5

[3] = Stability under oxidative conditions (0.1% hydrogen peroxide); assay type: physicochemical; conditions: LC-MS SIM
Method: We further determined the stability of the hybridized sequences under oxidative conditions. The oxidized complex, 2Ox was incubated with 0.1% hydrogen peroxide ([…]). Aliquots were analyzed via LC-MS over different time intervals up to 60 min (SI, Figure S23) using SIM detection. Besides monitoring the decrease in the m/z of 2Ox, SIM also offers the possibility to identify degradation products and allowed us to map the chemical processes involved in the oxidative condition implemented. […] We observed complete conversion to compound 3 (Figure 6c,d). […]
12. Fluorescence quenching assay
Four stock solutions were prepared: 5 mM OSCSO, 2 μM DL488 -BSCSB in a phosphate buffer (100 mM, pH = 6.0, 2.5 mM TCEP) and 5 mM OSCSO, 2 µM DL488-BSCSB in a phosphate buffer (100 mM, pH = 7.4, 2.5 mM TCEP). […] FQA was measured immediately.
The procedure was repeated 3 times both for pH 6.0 and 7.4. Each point on the graph represents mean average of normalized fluorescence for one concentration from the series and error bars represent standard […]
The NMR spectra were recorded on a Bruker AVANCE III 850 MHz spectrometer with a 5 mm triple resonance TXI 1H/13C/15N probe equipped wit h a z-gradient. All spectra were measured at 298 K. The spectra were analyzed using Bruker TopSpin 3.6.1. […]

In the case of NC(=O)[C@H](Cc1ccc(B(O)O)cc1)NC(=O)[C@H](CO)NC(=O)[C@H](CSSC[C@H](NC(=O)[C@H](CO)NC(=O)[C@@H](N)Cc1ccc(O)c(O)c1)C(=O)N[C@@H](CO)C(=O)N[C@@H](Cc1ccc(O)c(O)c1)C(N)=O)NC(=O)[C@H](CO)NC(=O)[C@@H](N)Cc1ccc(B(O)O)cc1 [2Ox] (I: H-[Phe(4-B(OH)2)]SCS[Phe(4-B(OH)2)]-NH2 / II: H-[Dopa]SCS[Dopa]-NH2; disulfide I:3-II:3), the metabolised at 24 h (in vitro [1]) is reported as ~20%, the remaining at 10 min, 1 mM (in vitro [2]) is reported as 80% and the starting material left ([3]; 1 mM in ammonium bicarbonate with 0.1% hydrogen peroxide (30 μM), after 10 min) is reported as “no starting material is left”. For the same molecule, the “dissociation into the single peptide sequences” value ([3]; 0.1% hydrogen peroxide (30 μM), up to 60 min) was “did not dissociate”.
